Reference: paper PMC12169847, “Targeted protein degradation by KLHDC2 ligands identified by high-throughput screening” (eLife, 2025)
Several values for one entry are separate records, joined by “and”; a condition that tells them apart may be missing. Equal entries are not always repeated. Where two headings read alike, the source gives them in different places.

Assays:
[1] = target: T1, KEAP1 Kelch domain (Homo sapiens, UniProt Q14145); test: Fluorescence polarization counter-screen, KEAP1 with TAMRA-NRF2 peptide; format: binding; details: for inhibitory effect in the KEAP1 counter-screening assay: concentrations less than 20 µM; for Fluorescence polarization signal: KEAP1, replicate wells
T1 construct: HIS6 (N); made in house; host or cells: Escherichia coli BL21(DE3)

[2] = target: T2, BRD4 (Homo sapiens, UniProt O60885); test: Cell-based HiBiT BRD4 degradation assay in HEK293T; design: expressed in transfected cells; host or cells: HEK293T; details: for Relative BRD4 levels (HiBiT luminescence): replicate wells; for DC50: BRD4-HiBiT, HEK293T;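 for all read-outs here: HEK293T cells transiently expressing HiBiT-tagged BRD4, exposed to serially diluted compounds, then lysed for a luminescence read-out that tracks the amount of cellular BRD4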
[3] = target: T2, BRD4; test: Cell-based endogenous BRD4 degradation assay (western blot) in SK-BR-3; design: expressed in transfected cells
Experimental: SK-BR-3 cells (0.25×10^6 cells/well, 2 mL) were seeded in six-well polystyrene plates for 24 hr before the compounds were added at the indicated doses as DMSO solutions. The protease inhibitor MG132 (Selleck Chemicals) was added to the sixth well along with 10 μM 3d at a concentration of 10 μM. The plate was incubated at 37°C for 24 hr, and the cells from each well were collected and lysed in RIPA buffer (Thermo Fisher 89900) with Halt protease and phosphatase inhibitor cocktail (Thermo Fisher 78440). The cellular content was extracted on ice for 20 min, and the protein concentration was determined by BCA assay (Thermo Fisher 23327). 2 μg of each sample was resolved via SDS-PAGE gels, and western blotting was used to visualize the endogenous BRD4 level (BRD4 primary antibody Abcam plc, Ab128874, RRID:AB_11145462, 1:10,000 dilution) with Bio-Rad Gel Doc XR+ imaging system.

T1 sequence (Q14145 321-609 limits assumed): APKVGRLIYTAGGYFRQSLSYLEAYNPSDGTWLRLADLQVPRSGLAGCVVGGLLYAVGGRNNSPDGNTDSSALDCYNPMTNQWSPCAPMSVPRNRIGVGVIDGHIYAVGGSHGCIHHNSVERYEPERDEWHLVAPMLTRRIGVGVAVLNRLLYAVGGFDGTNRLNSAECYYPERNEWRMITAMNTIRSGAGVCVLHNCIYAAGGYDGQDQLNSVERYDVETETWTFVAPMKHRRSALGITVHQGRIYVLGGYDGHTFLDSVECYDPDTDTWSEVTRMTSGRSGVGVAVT

Compound	inhibitory effect in the KEAP1 counter-screening assay [1]	Relative BRD4 levels (HiBiT luminescence) ([2]; 4 hr, 0.338702 nM)	Relative BRD4 levels (HiBiT luminescence) ([2]; 4 hr, 1.01611 nM)	Relative BRD4 levels (HiBiT luminescence) ([2]; 4 hr, 3.04832 nM)	Relative BRD4 levels (HiBiT luminescence) ([2]; 4 hr, 9.14495 nM)	Relative BRD4 levels (HiBiT luminescence) ([2]; 4 hr, 27.4348 nM)	Relative BRD4 levels (HiBiT luminescence) ([2]; 4 hr, 82.3045 nM)	Relative BRD4 levels (HiBiT luminescence) ([2]; 4 hr, 246.914 nM)	Relative BRD4 levels (HiBiT luminescence) ([2]; 4 hr, 740.741 nM)	Relative BRD4 levels (HiBiT luminescence) ([2]; 4 hr, 2222.22 nM)	Relative BRD4 levels (HiBiT luminescence) ([2]; 4 hr, 6666.67 nM)	Relative BRD4 levels (HiBiT luminescence) ([2]; 4 hr, 20000 nM)	Relative BRD4 levels (HiBiT luminescence) ([2]; 24 hr, 0.338702 nM)	Relative BRD4 levels (HiBiT luminescence) ([2]; 24 hr, 1.01611 nM)	Relative BRD4 levels (HiBiT luminescence) ([2]; 24 hr, 3.04832 nM)	Relative BRD4 levels (HiBiT luminescence) ([2]; 24 hr, 9.14495 nM)	Relative BRD4 levels (HiBiT luminescence) ([2]; 24 hr, 27.4348 nM)	Relative BRD4 levels (HiBiT luminescence) ([2]; 24 hr, 82.3045 nM)	DC50 ([2]; 4 hr, read-out: DC50 (4 hr))	DC50 ([2]; 24 hr, read-out: DC50 (24 hr)) [nM]	also measured
Cc1cc(NS(=O)(=O)c2ccc(Nc3nc(-c4c(C)nc5ccccn45)cs3)cc2)no1 [compound 3]	did not have an inhibitory effect																				
Cc1ccn2c(-c3csc(Nc4ccc(S(=O)(=O)Nc5cc(C)on5)cc4)n3)c(C)nc2c1 [compound 4]	did not have an inhibitory effect																				
O=C(O)c1cc(Cl)cc2c1NC(c1cccc(OC(F)(F)F)c1)C1C3CCC(C3)C21 (stereo not shown) [compound 6]	no inhibitory effect																				Fluorescence polarization signal ([1]; 0.169351 nM): 16 and 15 and 25; Fluorescence polarization signal ([1]; 0.508053 nM): 18 and 23 and 21; Fluorescence polarization signal ([1]; 1.52416 nM): 13 and 22 and 29; Fluorescence polarization signal ([1]; 4.57247 nM): 22 and 15 and 21; Fluorescence polarization signal ([1]; 13.7174 nM): 20 and 23 and 18; Fluorescence polarization signal ([1]; 41.1523 nM): 29 and 24 and 17; Fluorescence polarization signal ([1]; 123.457 nM): 18 and 24 and 30; Fluorescence polarization signal ([1]; 370.37 nM): 25 and 12 and 20; Fluorescence polarization signal ([1]; 1111.11 nM): 21 and 16 and 26; Fluorescence polarization signal ([1]; 3333.33 nM): 15 and 23 and 32; Fluorescence polarization signal ([1]; 10000 nM): 23 and 26 and 17; EC50 ([1]; in figure): > 20000 nM
COC(=O)c1cc(Cl)cc2c1NC(c1cccc(OCCOCCOCCNC(=O)CC3N=C(c4ccc(Cl)cc4)c4c(sc(C)c4C)-n4c(C)nnc43)c1)C1C3CCC(C3)C21 [compound 7, Methyl 2-chloro-6-(3-(2-(2-(2-(2-((S)-4-(4-chlorophenyl)–2,3,9-trimethyl-6H-thieno[3,2 f][1,2,4]triazolo[4,3 a][1,4]diazepin-6-yl)acetamido)ethoxy)ethoxy)ethoxy)phenyl)-5,6,6a,7,8,9,10,10a-octahydro-7,10-methanophenanthridine-4-carboxylate]		1.014 and 0.8842 and 1.103	0.9863 and 1.241 and 1.012	0.8761 and 0.9572 and 0.9491	0.9491 and 0.7788 and 0.8761	0.9248 and 1.014 and 0.9978	0.9816 and 0.9329 and 0.9248	0.9653 and 0.868 and 0.941	0.7544 and 0.7706 and 0.8518	0.7382 and 0.5841 and 0.7139	0.3732 and 0.3975 and 0.4462	0.3569 and 0.3164 and 0.3326	1.478 and 0.7263 and 0.7659	0.6909 and 0.8141 and 0.7927	0.6888 and 0.7059 and 0.7509	0.6963 and 0.9298 and 0.7745	0.7895 and 0.7691 and 1.0519	0.858 and 0.8752 and 0.9459	2600 nM and 2630 nM	4000	Relative BRD4 levels (HiBiT luminescence) ([2]; 24 hr, 246.914 nM): 0.8891 and 0.8666 and 0.9223; Relative BRD4 levels (HiBiT luminescence) ([2]; 24 hr, 740.741 nM): 1.234 and 1.1783 and 1.43; Relative BRD4 levels (HiBiT luminescence) ([2]; 24 hr, 2222.22 nM): 0.8473 and 0.8591 and 0.9544; Relative BRD4 levels (HiBiT luminescence) ([2]; 24 hr, 6666.67 nM): 0.1778 and 0.1692 and 0.1789; Relative BRD4 levels (HiBiT luminescence) ([2]; 24 hr, 20000 nM): 0.1875 and 0.1318 and 0.1307
COC(=O)c1cc(Cl)cc2c1NC(c1cccc(OCCC3CCN(CC4CCN(C(=O)CC5N=C(c6ccc(Cl)cc6)c6c(sc(C)c6C)-n6c(C)nnc65)CC4)CC3)c1)C1C3CCC(C3)C21 [compound 8, Methyl 2-chloro-6-(3-(2-(1-((1-(2-((S)–4-(4-chlorophenyl)-2,3,9-trimethyl-6H-thieno[3,2 f][1,2,4]triazolo[4,3 a][1,4]diazepin-6-yl)acetyl)piperidin-4-yl)methyl)piperidin-4-yl)ethoxy)phenyl)-5,6,6a,7,8,9,10,10a-octahydro-7,10-methanophenanthridine-4-carboxylate]		0.9416 and 0.7691 and 0.8677	1.421 and 0.6823 and 1.057	0.9694 and 0.7305 and 0.8098	0.8569 and 0.4906 and 0.8452	0.6224 and 0.978 and 0.6213	0.6909 and 0.6031 and 0.4253	0.2967 and 0.3567 and 0.4735	0.2624 and 0.2035 and 0.2314	0.1885 and 0.1435 and 0.2046	0.1767 and 0.1639 and 0.1864	0.2282 and 0.2025 and 0.226	0.9416 and 0.7691 and 0.8677	1.421 and 0.6823 and 1.057	0.9694 and 0.7305 and 0.8098	0.8569 and 0.4906 and 0.8452	0.6224 and 0.978 and 0.6213	0.6909 and 0.6031 and 0.4253	164 nM	80	endogenous BRD4 protein degraded ([3]; SK-BR-3, 100 nM, 24 hr): more than 60%; endogenous BRD4 degradation (maximal) ([3]; SK-BR-3, 10 µM, 24 hr): 94%; BRD4 remaining ([3]; SK-BR-3, 10 µM, DMSO condition, 24 hr): 4%; BRD4 remaining ([3]; SK-BR-3, 10 µM, co-treated with MG-132, 24 hr): 29%; Relative BRD4 levels (HiBiT luminescence) ([2]; 24 hr, 246.914 nM): 0.2967 and 0.3567 and 0.4735; Relative BRD4 levels (HiBiT luminescence) ([2]; 24 hr, 740.741 nM): 0.2624 and 0.2035 and 0.2314; Relative BRD4 levels (HiBiT luminescence) ([2]; 24 hr, 2222.22 nM): 0.1885 and 0.1435 and 0.2046; Relative BRD4 levels (HiBiT luminescence) ([2]; 24 hr, 6666.67 nM): 0.1767 and 0.1639 and 0.1864; Relative BRD4 levels (HiBiT luminescence) ([2]; 24 hr, 20000 nM): 0.2282 and 0.2025 and 0.226
COC(=O)c1cc(Cl)cc2c1NC(c1cccc(OCc3ccc(-c4ccc(NC(=O)C[C@@H]5N=C(c6ccc(Cl)cc6)c6c(sc(C)c6C)-n6c(C)nnc65)cc4)cc3)c1)C1C3CCC(C3)C21 (stereo partly drawn) [compound 9, Methyl 2-chloro-6-(3-((4'-(2-((S)-4-(4-chlorophenyl)-2,3,9-trimethyl-6H-thieno[3,2 f][1,2,4]triazolo[4,3 a][1,4]diazepin-6-yl)acetamido)-[1,1'-biphenyl]-4-yl)methoxy)phenyl)--5,6,6a,7,8,9,10,10a-octahydro-7,10-methanophenanthridine-4-carboxylate]																			> 20000 nM	> 20000	BRD4 degradation ([2]; any concentration (<20 µM), 4 or 24 hr): did not promote BRD4 degradation
